# In US20100256173A1, “Method of Treating Cognitive Impairment” (priority 2009, published 2010):
# What was measured:
# [1] = test system: nicotine-stimulated release of acetylcholine (ACh); experiment: nicotine-stimulated release of acetylcholine
# Source text: (§1) Experiments have shown that ST101 potentiates nicotine-stimulated release of acetylcholine (ACh), increases extracellular ACh concentrations in the cerebral cortex, and increases extracellular concentrations of both ACh and dopamine in the hippocampus.
# [2] = test system: extracellular ACh and dopamine in cerebral cortex and hippocampus; experiment: extracellular neurotransmitter concentrations in brain; assay type: in vivo
# Source text: as §1
# [3] = test system: rodent models of learning and memory; conditions: cited from earlier work
# [4] = test system: Senescence Accelerated Mouse P8 (SAMP8); conditions: cited from earlier work
# [5] = test system: rodent models of learning and memory; experiment: rodent models of learning and memory (age-impaired memory, chemical amnesic agents); assay type: in vivo; conditions: after both acute (single-dose) and chronic administration
# Source text: The chemical name for ST101 is spiro(imidazo(1,2-a)pyridin-2(3H)-one-3,2′-indan).
# (Yamaguchi Y., et al., J. Pharmacol. Exp. Ther. 317:1079-87 (2006); Ito Y., et al., J. Pharmacol. Exp. Ther. 320: 819-27 (2007)).
# [6] = known from other studies; cited from earlier work
smiles,measurement,setting,value
"O=C1N=C2C=CC=CN2C12Cc1ccccc1C2 [ST101, spiro(imidazo(1,2-a)pyridin-2(3H)-one-3,2′-indan)]",nicotine-stimulated release of acetylcholine (ACh),[1],potentiates
same,extracellular ACh concentrations,[2]; cerebral cortex,increases
same,extracellular concentration of ACh,[2]; hippocampus,increases
same,extracellular concentration of dopamine,[2]; hippocampus,increases
same,memory deficits induced by methamphetamine,[3]; chemical amnesic agent methamphetamine,attenuates
same,memory deficits induced by MK-801,[3]; glutamate receptor antagonist MK-801,attenuates
same,age-impaired memory,[3]; in vivo,significantly improves
same,memory deficits induced by scopolamine,[3]; muscarinic antagonist scopolamine,attenuates
same,accumulation of Aβ-like deposits,[4]; SAMP8 mouse brain tissue,decreased
same,learning and memory functions,[4]; SAMP8 mouse,improvement
same,pharmacological activity in rodent models of learning and memory relevant to AD,[5],has shown pharmacological activity
same,neuroprotective activity,[6],has neuroprotective activity
